Measurements published in patent publication US10342819B2, “Oligonucleotide having non-natural nucleotide at 5′-terminal thereof” (Kyowa Hakko Kirin Co., Ltd., priority 2014, dated 2019).

These compounds were tested against T1, AGO2-MID domain (Homo sapiens, UniProt Q9UKV8) (assay: Biacore competition experiment of nucleotide (monomer) for the AGO2-MID domain (Test Examples 7 and 8)). Conditions: Test Example 7; 2.5 μg/mL AGO2-MID domain solution containing the monomer at 100 μM; read-out: inhibition rate (%) (100 μM AGO2-MID domain solutions).
T1 construct: mixed with an equal amount of a 5 μg/mL AGO2-MID domain solution
Assay type: binding
Description: HBS-EP+ 10× was diluted to 10-fold with pure water, and DTT was added thereto to give a final concentration of 2 mM, followed by filtration through a filter to prepare an HBS-EP+ 2 mM DTT aqueous solution. To this solution, dimethyl sulfoxide (DMSO) was added to give a final concentration of 1%, whereby a running buffer was prepared.
A monomer solution dissolved in DMSO or distilled water was diluted to 200 μM, 40 μM, 8 μM, and 1.6 μM/(2% DMSO, HBS-EP+, 2 mM DTT), and each of the diluted solutions was mixed with an equal amount of a 5 μg/mL AGO2-MID domain solution diluted with the HBS-EP+2 mM DTT solution, whereby 2.5 μg/mL AGO2-MID domain solutions containing the monomer at 100 μM, 20 μM, 4 μM, and 0.8 μM, respectively, were prepared as the HBS-EP+, 2 mM DTT, 1% DMSO solution.
A competition experiment by the siRNA was performed using a chip immobilized dT(16)-Biotin oligo thereon in the same manner as in Test Example 6. The flow rate is set to 30 μL/minute throughout the experiment, and one cycle is performed as follows: binding for 60 seconds, dissociation for 5 seconds, and regeneration 1 M NaCl for 5 seconds.
In order to stabilize the machine, the first 10 cycles are performed by adding only HBS-EP+, and thereafter, the measurement is performed for each monomer in the order of HBS-EP+(BLANK), a 2.5 μg/mL AGO2-MID domain solution (CONTROL), and 2.5 μg/mL AGO2-MID domain solutions (Sample) containing the monomer at 100 μM, 20 μM, 4 μM, and 0.8 μM, respectively, and a 2.5 μg/mL AGO2-MID domain solution (CONTROL). In the analysis, the binding level of the graph obtained by subtracting the graph for blank immobilization from the graph for the immobilized cell is used, and the residual binding ratio (%) is calculated according to ([Sample]−[BLANK])/([CONTROL]−[BLANK])×100, and the inhibition ratio (%) is calculated according to 100−(residual binding ratio).
In Table 36, the inhibition ratios (%) of 8-Br-dA (Compound I-1) and 5-fluoro-2′-deoxyuridine monophosphate (Compound I-4), and for comparison thereof, the inhibition ratios (%) of adenosine monophosphate (AMP) and uridine monophosphate (UMP) are shown.

Question: How did the inhibition at 100 µM turn out when Nc1ncnc2c1nc(Br)n2[C@H]1C[C@H](O)[C@@H](COP(=O)(O)O)O1 [compound I-1, 8-bromo-2′-deoxyadenosine monophosphate] was run?
Answer: 68.6%

Question: How did the inhibition at 100 µM turn out when O=c1[nH]c(=O)n([C@H]2C[C@H](O)[C@@H](COP(=O)(O)O)O2)cc1F [compound I-4, 5-fluoro-2′-deoxyuridine monophosphate] was run?
Answer: 42.7%

Question: With O=c1ccn([C@@H]2O[C@H](COP(=O)(O)O)[C@@H](O)[C@H]2O)c(=O)[nH]1 [UMP, uridine monophosphate, reference compound] as the compound, how does the inhibition at 100 µM read?
Answer: 35.9%

Same assay, conditions: Test Example 8; 2.5 μg/mL AGO2-MID domain solution containing the monomer at 100 μM; read-out: inhibition rate (%) (100 μM AGO2-MID domain solutions)

Question: With Cc1cn([C@@H]2O[C@H](COP(=O)(O)O)[C@@H](O)[C@H]2O)c(=O)[nH]c1=O [compound I-33, ((2R,3S,4R,5R)-3,4-Dihydroxy-5-(5-methyl-2,4-dioxo-3,4-dihydropyrimidin-1(2H)-yl)tetrahydrofuran-2-yl)methyl phosphate] as the compound, how does the inhibition at 100 µM read?
Answer: 82.9%

Question: How did the inhibition at 100 µM turn out when O=P(O)(O)OC[C@H]1O[C@@H](n2cnc3c(/C=C/c4ccccc4)ncnc32)[C@H](O)[C@@H]1O [compound I-10, ((2R,3S,4R,5R)-3,4-dihydroxy-5-(6-((E)-styryl)-9H-purin-9-yl)tetrahydrofuran-2-yl)methyl phosphate] was run?
Answer: 73.5%

Question: Which inhibition at 100 µM does the source give for Cc1c(C#N)n([C@@H]2O[C@H](COP(=O)(O)O)[C@@H](O)[C@H]2O)c(=O)[nH]c1=O [compound I-24, ((2R,3S,4R,5R)-5-(6-cyano-5-methyl-2,4-dioxo-3,4-dihydropyrimidin-1 (2H)-yl)-3,4-dihydroxytetrahydrofuran-2-yl)methyl phosphate] here?
Answer: 88.4%

Question: COc1ccc(-c2cn([C@@H]3O[C@H](COP(=O)(O)O)[C@@H](O)[C@H]3O)c(=O)[nH]c2=O)cc1 [compound I-16, ((2R,3S,4R,5R)-3,4-Dihydroxy-5-(5-(4-methoxyphenyl)-2,4-dioxo-3,4-dihydropyrimidin-1(2H)-yl)tetrahydrofuran-2-yl)methyl phosphate] was tested. Which inhibition at 100 µM did it give?
Answer: 65.6%

Question: With O=c1[nH]c(=O)n([C@@H]2O[C@H](COP(=O)(O)O)[C@@H](O)[C@H]2O)c2ccsc12 [compound I-9, (2R,3S,4R,5R)-5-(2,4-Dioxo-3,4-dihydrothieno[3,2-d]pyrimidin-1(2H)-yl)-3,4-dihydroxytetrahydrofuran-2-yl)methyl phosphate] as the compound, how does the inhibition at 100 µM read?
Answer: 70.9%

Question: How did the inhibition at 100 µM turn out when O=P(O)(O)OC[C@H]1O[C@@H](n2cnc3c(-c4cccc(N5CCOCC5)c4)ncnc32)[C@H](O)[C@@H]1O [compound I-28, ((2R,3S,4R,5R)-3,4-Dihydroxy-5-(6-(3-morpholinophenyl)-9H-purin-9-yl)tetrahydrofuran-2-yl)methyl phosphate] was run?
Answer: 77%

Question: How did the inhibition at 100 µM turn out when O=C(O)c1cccc(-c2ncnc3c2ncn3[C@@H]2O[C@H](COP(=O)(O)O)[C@@H](O)[C@H]2O)c1 [compound I-30, ((2R,3S,4R,5R)-5-(6-(3-(carboxy)phenyl)-9H-purin-9-yl)-3,4-dihydroxytetrahydrofuran-2-yl)methyl phosphate] was run?
Answer: 73.2%

Question: For CN(C)c1ncnc2c1nc(Br)n2[C@@H]1O[C@H](COP(=O)(O)O)[C@@H](O)[C@H]1O [compound I-11, ((2R,3S,4R,5R)-6-(8-bromo-6-(dimethylamino)-9H-purin-9-yl)-3,4-dihydroxytetrahydrofuran-2-yl)methyl phosphate], which inhibition at 100 µM is on record?
Answer: 60.9%

Question: With O=c1[nH]c(=O)n([C@@H]2O[C@H](COP(=O)(O)O)[C@@H](O)[C@H]2O)cc1-c1ccccn1 [compound I-14, ((2R,3S,4R,5R)-5-(2,4-Dioxo-5-(pyridin-2-yl)-3,4-dihydropyrimidin-1 (2H)-yl)-3,4-dihydroxytetrahydrofuran-2-yl)methyl phosphate] as the compound, how does the inhibition at 100 µM read?
Answer: 63.3%

Question: With Cc1cc(=O)[nH]c(=O)n1[C@@H]1O[C@H](COP(=O)(O)O)[C@@H](O)[C@H]1O [compound I-34, ((2R,3S,4R,5R)-3,4-Dihydroxy-5-(6-methyl-2,4-dioxo-3,4-dihydropyrimidin-1(2H)-yl)tetrahydrofuran-2-yl)methyl phosphate] as the compound, how does the inhibition at 100 µM read?
Answer: 31.8%

Question: CN(C)c1ncnc2c1nc(C#N)n2[C@@H]1O[C@H](COP(=O)(O)O)[C@@H](O)[C@H]1O [compound I-12, ((2R,3S,4R,5R)-6-(8-cyano-6-(dimethylamino)-9H-purin-9-yl)-3,4-dihydroxytetrahydrofuran-2-yl)methyl phosphate] was tested. Which inhibition at 100 µM did it give?
Answer: 74.2%

Question: Which inhibition at 100 µM does the source give for O=Cc1cccc(-c2ncnc3c2ncn3[C@@H]2O[C@H](COP(=O)(O)O)[C@@H](O)[C@H]2O)c1 [compound I-22, ((2R,3S,4R,5R)-3,4-Dihydroxy-5-(6-(3-formylphenyl)-9H-purin-9-yl)tetrahydrofuran-2-yl)methyl phosphate] here?
Answer: 91.6%

Question: Which inhibition at 100 µM does the source give for COc1cc2c(=O)[nH]c(=O)n([C@@H]3O[C@H](COP(=O)(O)O)[C@@H](O)[C@H]3O)c2cc1OC [compound I-5, ((2R,3S,4R,5R)-5-(6,7-dimethoxy-2,4-dioxo-3,4-dihydroquinazolin-1(2H)-yl)-3,4-dihydroxytetrahydrofuran-2-yl)methyl phosphate] here?
Answer: 87.4%

Question: O=c1[nH]c(=O)n([C@@H]2O[C@H](COP(=O)(O)O)[C@@H](O)[C@H]2O)c2ccc([N+](=O)[O-])cc12 [compound I-23, ((2R,3S,4R,5R)-3,4-Dihydroxy-5-(6-nitro-2,4-dioxo-3,4-dihydroquinazolin-1(2H)-yl)tetrahydrofuran-2-yl)methyl phosphate] was tested. Which inhibition at 100 µM did it give?
Answer: 85.2%

Question: Which inhibition at 100 µM does the source give for O=P(O)(O)OC[C@H]1O[C@@H](n2cnc3c(-c4cccc(-c5ccccc5)c4)ncnc32)[C@H](O)[C@@H]1O [compound I-26, ((2R,3S,4R,5R)-5-(6-(Biphenyl-3-yl)-9H-purin-9-yl)-3,4-dihydroxytetrahydrofuran-2-yl)methyl phosphate] here?
Answer: 82.4%

Question: For CNc1cc2c(cc1[N+](=O)[O-])c(=O)[nH]c(=O)n2[C@@H]1O[C@H](COP(=O)(O)O)[C@@H](O)[C@H]1O [compound I-37, ((2R,3S,4R,5R)-3,4-Dihydroxy-5-(7-(methylamino)-6-nitro-2,4-dioxo-3,4-dihydroquinazolin-1(2H)-yl)tetrahydrofuran-2-yl)methyl phosphate], which inhibition at 100 µM is on record?
Answer: 92.3%

Question: Which inhibition at 100 µM does the source give for O=c1cc(I)n([C@@H]2O[C@H](COP(=O)(O)O)[C@@H](O)[C@H]2O)c(=O)[nH]1 [compound I-13, ((2R,3S,4R,5R)-5-(6-Iodo-2,4-dioxo-3,4-dihydropyrimidin-1(2H)-yl)-3,4-dihydroxytetrahydrofuran-2-yl)methyl phosphate] here?
Answer: 63.4%

Question: How did the inhibition at 100 µM turn out when Cc1sc2c(c1C)c(=O)[nH]c(=O)n2[C@@H]1O[C@H](COP(=O)(O)O)[C@@H](O)[C@H]1O [compound I-19, ((2R,3S,4R,5R)-5-(5,6-Dimethyl-2,4-dioxo-3,4-dihydrothieno [2,3-d]pyrimidin-1 (2H)-yl)-3,4-dihydroxytetrahydrofuran-2-yl)methyl phosphate] was run?
Answer: 89.7%

Question: How did the inhibition at 100 µM turn out when O=P(O)(O)OC[C@H]1O[C@@H](n2c(Br)nc3c(/C=C/c4ccccc4)ncnc32)[C@H](O)[C@@H]1O [compound I-18, ((2R,3S,4R,5R)-5-(8-Bromo-6-((E)-styryl)-9H-purin-9-yl)-3,4-dihydroxytetrahydrofuran-2-yl)methyl phosphate] was run?
Answer: 97.8%

Question: Which inhibition at 100 µM does the source give for O=c1[nH]c(=O)n([C@@H]2O[C@H](COP(=O)(O)O)[C@@H](O)[C@H]2O)c2cccc(Cl)c12 [compound I-8, ((2R,3S,4R,5R)-5-(5-Chloro-2,4-dioxo-3,4-dihydroquinazolin-1(2H)-yl)-3,4-dihydroxytetrahydrofuran-2-yl)methyl phosphate] here?
Answer: 77.1%

Same assay, conditions: conclusion from Test Example 7

Question: With Nc1ncnc2c1nc(Br)n2[C@H]1C[C@H](O)[C@@H](COP(=O)(O)O)O1 [compound I-1, 8-bromo-2′-deoxyadenosine monophosphate] as the compound, how does the “affinity for AGO2 (inhibition ratio) compared with adenosine monophosphate or uridine monophosphate” value read?
Answer: higher affinity for AGO2

Question: O=c1[nH]c(=O)n([C@H]2C[C@H](O)[C@@H](COP(=O)(O)O)O2)cc1F [5-fluoro-2′-deoxyuridine monophosphate] was tested. Which “affinity for AGO2 (inhibition ratio) compared with adenosine monophosphate or uridine monophosphate” value did it give?
Answer: higher affinity for AGO2

Same assay, conditions: read-out: inhibition rate (%) (100 μM AGO2-MID domain solutions)

Question: Which inhibition at 100 µM does the source give for N#Cc1cc(=O)[nH]c(=O)n1[C@@H]1O[C@H](COP(=O)(O)O)[C@@H](O)[C@H]1O [compound I-17, ((2R,3S,4R,5R)-5-(6-Cyano-2,4-dioxo-3,4-dihydropyrimidin-1(2H)-yl)-3,4-dihydroxytetrahydrofuran-2-yl)methyl phosphate] here?
Answer: 86%
